Patent US20160102074A1, “SUBSTITUTED AMIDE COMPOUNDS” (PFIZER INC., priority 2014, published 2016)
pIC50: −log10 of the molar value.

Key:
human PCSK9 = assay: PCSK9 AlphaLISA assay, PCSK9 lowering in WT7 cells; conditions: WT7 cells (Huh7 stably over-expressing human PCSK9), secreted PCSK9 by AlphaLISA, overnight incubation (16-24 h), top concentration 20 μM; read-out: Cell Based PCSK9 IC50
Description: PCSK9 Lowering in WT7 Cells
An in-vitro AlphaLISA assay (Perkin Elmer) was developed in order to quantitate the level of PCSK9 secreted into the cell culture media following compound treatment. To detect and measure PCSK9 protein a mouse monoclonal anti-human PCSK9 antibody was coupled to AlphaLISA acceptor beads by an external vendor (Perkin Elmer) and a second rabbit monoclonal anti-human PCSK9 antibody with an epitope distinct from that of the acceptor beads was biotinylated using the EZ link NHS-LC-LC-Biotin kit (Life Technologies #21338). Streptavidin coated-donor beads (Perkin Elmer) are also included in the assay mixture which then binds the biotinylated anti-PCSK9 antibody and in the presence of PCSK9 this donor complex and acceptor beads are brought into close proximity. Upon excitation of the donor beads at 680 nm singlet oxygen molecules are released that trigger an energy transfer cascade within the acceptor beads resolving as a single peak of light emitted at 615 nm. The ability of compound to modulate PCSK9 protein levels in conditioned media by AlphaLISA was assessed in the human hepatocellular carcinoma cell line Huh7, stably over-expressing human PCSK9. This cell line, termed WT7, was established by transfecting Huh7 cells with an in-house modified pcDNA 3.1 (+) Zeo expression vector (Life Technologies) containing the full-length human PCSK9 sequence (NCBI reference identifier, NM_174936.3, where coding sequence start annotated at position 363) and a c-terminal V5 and 6×-His tag. Following plasmid transfection the stable WT7 clone was identified and maintained under Zeocin selection. Compound screening was performed in 384-well plates where WT7 cells were plated at a density of 7500 cells per well in 20 μL of tissue culture media containing compound in an eleven point, 0.5 log dilution format at a high treatment concentration of 20 μM in a final volume of 0.5% DMSO. In additional to these test compound conditions each screening plate also included wells that contained 20 μM puromycin as a positive assay control defined as high percent effect, HPE, as well as wells containing media in 0.5% DMSO as a negative treatment control defined as zero percent effect, ZPE. After overnight compound incubation (16-24 h) the tissue culture media was collected and an aliquot from each sample was transferred to individual wells of a 384-well white Optiplate (Perkin Elmer). The coupled antibodies and donor beads were added to the assay plates in a buffer composed of 30 mM Tris pH 7.4, 0.02% Tween-20 and 0.02% Casein. Anti-PCSK9 acceptor beads (final concentration of 10 μg/mL) and anti-PCSK9 biotinylated antibody (final concentration of 3 nM) were added and incubated for 30 minutes at room temperature followed by the addition of the streptavidin donor beads (final concentration 40 μg/mL) for an additional 60 minutes. Additionally a standard curve was generated where AlphaLISA reagents were incubated in wells spiked with recombinant human PCSK9 diluted in tissue culture media from 5000 ng/mL to 0.6 ng/mL. Following incubation with AlphaLISA reagents plates were read on an EnVision (Perkin Elmer) plate reader at an excitation wavelength of […] and emission/detection wavelength of […]. To determine compound IC50 the data for HPEand ZPEcontrol wells were first analyzed and the mean, standard deviation and Z prime calculated for each plate. The test compound data were converted into percent effect, using the ZPE and HPE controls as 0% and 100% activity, respectively. The equation used for converting each well reading into percent effect was:
IC50 was then calculated and reported as the midpoint in the percent effect curve in molar units and the values are reported under the Cell Based PCSK9 IC50 (μM) column header within Table 2 Biological Data. […]

[1] = Human intestinal S9 fraction in vitro stability assay (HInt); type: in vitro ADME; conditions: human intestinal S9 0.1 mg/mL, 1 μM test compound, pH 7.4, 37° C., substrate depletion
Description: In particular, the human intestinal S9 fraction in vitro stability assay (HInt) and human hepatocyte in vitro liver metabolism assay (HHep) provide important information regarding the clearance and metabolic activation of these compounds. The human intestinal S9 fraction in vitro stability assay provides a surrogate measure of compound metabolism as it travels across the gut wall; compounds with low CLint values more likely to enter the portal vein and be exposed to the liver. Likewise, the human hepatocyte in vitro liver metabolism assay provides a surrogate measure of compound metabolism when exposed to liver; compounds with high CLint values are more likely to be metabolically activated. For compounds such as prodrugs that release an active species on metabolic activation, high CLint values in human hepatocytes are desirable. Active compounds released in this way inhibit PCSK9 and show improved atherosclerotic properties by increased exposure of the active metabolite in the liver.
Human Intestinal S9 Fraction In Vitro Stability Assay (Hint)
In vitro stability of test compounds in human intestinal S9 fraction was determined by a substrate depletion approach. Frozen PMSF-free human intestinal S9 (BD Gentest) was thawed on wet ice and diluted to the test concentration of 0.1 mg/mL in 100 mM potassium phosphate buffer pH 7.4. Aliquots of diluted intestinal S9 (495 μL, n=2) were added to tubes in a dry heat bath and pre-warmed for 5 min at 37° C. Test compounds were dissolved in DMSO at 30 mM, ordered from the TekCel at 10 mM, and further diluted to 0.1 mM in DMSO. To initiate the reaction, 5 μL of 0.1 mM DMSO stock solution was added to the pre-warmed intestinal S9. The final test compound concentration in the incubation was 1 μM. At each time point (0.25, 5, 10, 20, 40, and 60 min) a 50 μL sample of incubate was removed and transferred to a plate containing 200 μL acetonitrile with internal standard (2 ng/mL terfenadine). After collection of the final time point, sample plates were capped, vortexed, and centrifuged for 5 minutes at approximately 2000×g. 150 μL of supernatant was removed and transferred to a clean storage plate for direct LC-MS/MS analysis. LC-MS/MS analysis was conducted on a Triple Quad 5500 (AB Sciex) with two LC-20AD pumps and CBM-20 controller (Shimadzu) and CTC PAL autosampler (LEAP Technologies). The MS was operated in multiple reaction monitoring mode with simultaneous monitoring for test compound and internal standard. 5 μL of sample was injected on a Kinetex C18 30×2.1 mm column (Phenomenex) and eluted at 0.5 ml/min under the following conditions, where solvent A was water containing 0.1% formic acid and solvent B was acetonitrile containing 0.1% formic acid: hold initial conditions 90% A and 10% B for 0.8 min, ramp to 30% A and 70% B over 1 min, step to 5% A and 95% B over 0.05 min, hold at 5% A and 95% B for 0.15 min, return to initial conditions over 0.1 min, and hold for 0.4 min. Peak areas of test compound and internal standard were quantitated using Analyst 1.5 (AB Sciex) and the ratios of test compound peak area to internal standard peak area (area ratio) were calculated. The natural log of area ratio was plotted versus time and the portion of the curve representing the initial linear rate of test compound depletion was fit using linear regression (IDBS E-Workbook 9.4). The slope of this line was converted to half-life (t1/2=−LN2/slope). Half-life was used to calculate intrinsic apparent clearance (CLint=LN2/(t1/2*(mg protein/ml incubation))).

SMILES	pIC50 (human PCSK9)	microsomal CLint at 1 μM [1] [µL/min/mg]
Cn1ncc(-c2ccc(C(=O)N(c3ncccc3Cl)[C@@H]3CCCNC3)cc2F)c1-c1nn[nH]n1 [Example 3, N-(3-chloropyridin-2-yl)-3-fluoro-4-[1-methyl-5-(2H-tetrazol-5-yl)-1H-pyrazol-4-yl]-N-[(3R)-piperidin-3-yl]benzamide]	< 4.70	
CCOC(=O)O[C@@H](C)n1nnnc1-c1c(-c2ccc(C(=O)N(c3ncccc3Cl)[C@@H]3CCCNC3)cc2F)cnn1C [Example 7, ethyl (S)-1-{5-[4-(4-{(3-chloropyridin-2-yl)[(3R)-piperidin-3-yl]carbamoyl}-2-fluorophenyl)-1-methyl-1H-pyrazol-5-yl]-1H-tetrazol-1-yl}ethyl carbonate]	< 4.70	< 82.9
CCOC(=O)O[C@@H](C)n1nnnc1-c1c(-c2ccc(C(=O)N(c3ncccc3C)[C@@H]3CCCNC3)cc2F)cnn1C [Example 8, ethyl (S)-1-{5-[4-(4-{(3-methylpyridin-2-yl)[(3R)-piperidin-3-yl]carbamoyl}-2-fluorophenyl)-1-methyl-1H-pyrazol-5-yl]-1H-tetrazol-1-yl}ethyl carbonate]	< 4.70	116
CCOC(=O)O[C@@H](C)n1nnnc1-c1c(-c2ccc(C(=O)N(c3ncccc3C)[C@@H]3CCCNC3)nc2)cnn1C [Example 9, ethyl (S)-1-{5-[1-methyl-4-(6-{(3-methylpyridin-2-yl)[(3R)-piperidin-3-yl]carbamoyl}pyridin-3-yl)-1H-pyrazol-5-yl]-1H-tetrazol-1-yl}ethyl carbonate]	< 4.70	< 57.8
CCOC(=O)O[C@@H](C)n1nnnc1-c1c(-c2ccc(C(=O)N(c3ncccc3Cl)[C@@H]3CCCNC3)nc2)cnn1C [Example 10, ethyl (S)-1-{5-[4-(6-{(3-chloropyridin-2-yl)[(3R)-piperidin-3-yl]carbamoyl}pyridin-3-yl)-1-methyl-1H-pyrazol-5-yl]-1H-tetrazol-1-yl}ethyl carbonate]	< 4.70	< 57.8
CCOC(=O)O[C@H](C)n1nnnc1-c1c(-c2ccc(C(=O)N(c3ncccc3Cl)[C@@H]3CCCNC3)cc2F)cnn1C [Example 11, ethyl (R)-1-{5-[4-(4-{(3-chloropyridin-2-yl)[(3R)-piperidin-3-yl]carbamoyl}-2-fluorophenyl)-1-methyl-1H-pyrazol-5-yl]-1H-tetrazol-1-yl}ethyl carbonate]	4.79	620

Now from value to compound:

pIC50 (human PCSK9)	microsomal CLint at 1 μM [1] [µL/min/mg]	SMILES
< 4.70	< 57.8	CCOC(=O)O[C@@H](C)n1nnnc1-c1c(-c2ccc(C(=O)N(c3ncccc3C)[C@@H]3CCCNC3)cc2)cnn1C [Example 5a, ethyl (S)-1-{5-[1-methyl-4-(4-{(3-methylpyridin-2-yl)[(3R)-piperidin-3-yl]carbamoyl}phenyl)-1H-pyrazol-5-yl]-1H-tetrazol-1-yl}ethyl carbonate]
< 4.70	86.9	CCOC(=O)O[C@H](C)n1nnnc1-c1c(-c2ccc(C(=O)N(c3ncccc3C)[C@@H]3CCCNC3)cc2)cnn1C [Example 5b, ethyl (R)-1-{5-[1-methyl-4-(4-{(3-methylpyridin-2-yl)[(3R)-piperidin-3-yl]carbamoyl}phenyl)-1H-pyrazol-5-yl]-1H-tetrazol-1-yl}ethyl carbonate]
< 4.70	< 57.8	CCOC(=O)O[C@@H](C)n1nnnc1-c1c(-c2ccc(C(=O)N(c3ncccc3Cl)[C@@H]3CCCNC3)cc2)cnn1C [Example 6, ethyl (S)-1-{5-[1-methyl-4-(4-{(3-chloropyridin-2-yl)[(3R)-piperidin-3-yl]carbamoyl}phenyl)-1H-pyrazol-5-yl]-1H-tetrazol-1-yl}ethyl carbonate]
